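These data come from cells grown in 96-well plates and exposed to compound for 48 hours at five concentrations. GI50 = concentration required for 50% inhibition of growth. TGI: concentration producing complete growth inhibition.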
Assays:
Experiment in all cases: DTP human tumour cell line panel, 48 h
SW-620 colon = test system: SW-620 colon
OVCAR-4 ovarian = test system: OVCAR-4 ovarian
A498 renal = test system: A498 renal
OVCAR-8 ovarian = test system: OVCAR-8 ovarian
T-47D breast = test system: T-47D breast
SNB-19 CNS = test system: SNB-19 CNS
M14 melanoma = test system: M14 melanoma
NCI-H460 lung = test system: NCI-H460 lung
SK-MEL-2 melanoma = test system: SK-MEL-2 melanoma
SF-295 CNS = test system: SF-295 CNS
SF-539 CNS = test system: SF-539 CNS
HCT-15 colon = test system: HCT-15 colon
MDA-MB-231 breast = test system: MDA-MB-231 breast
CAKI-1 renal = test system: CAKI-1 renal
OVCAR-3 ovarian = test system: OVCAR-3 ovarian
NCI-H522 lung = test system: NCI-H522 lung
HCT-116 colon = test system: HCT-116 colon
SK-MEL-5 melanoma = test system: SK-MEL-5 melanoma
HOP-62 NSCLC = test system: HOP-62 NSCLC
TK-10 renal = test system: TK-10 renal
SK-MEL-28 melanoma = test system: SK-MEL-28 melanoma
MCF7 breast = test system: MCF7 breast
SR leukemia = test system: SR leukemia
HS 578T breast = test system: HS 578T breast
BT-549 breast = test system: BT-549 breast
HL-60(TB) leukemia = test system: HL-60(TB) leukemia
LOX IMVI melanoma = test system: LOX IMVI melanoma
MOLT-4 leukemia = test system: MOLT-4 leukemia
EKVX NSCLC = test system: EKVX NSCLC
SF-268 CNS = test system: SF-268 CNS
CCRF-CEM leukemia = test system: CCRF-CEM leukemia
786-0 renal = test system: 786-0 renal
SNB-75 CNS = test system: SNB-75 CNS
U251 CNS = test system: U251 CNS
HCC-2998 colon = test system: HCC-2998 colon
RPMI-8226 leukemia = test system: RPMI-8226 leukemia
PC-3 prostate = test system: PC-3 prostate
UACC-62 melanoma = test system: UACC-62 melanoma
UO-31 renal = test system: UO-31 renal
HT29 colon = test system: HT29 colon
RXF 393 renal = test system: RXF 393 renal
SN12C renal = test system: SN12C renal
HOP-92 NSCLC = test system: HOP-92 NSCLC
UACC-257 melanoma = test system: UACC-257 melanoma
MDA-MB-435 = test system: MDA-MB-435
K-562 leukemia = test system: K-562 leukemia
ACHN renal = test system: ACHN renal
MALME-3M melanoma = test system: MALME-3M melanoma
KM12 colon = test system: KM12 colon
DU-145 prostate = test system: DU-145 prostate
NCI-H226 lung = test system: NCI-H226 lung
SK-OV-3 ovarian = test system: SK-OV-3 ovarian
OVCAR-5 ovarian = test system: OVCAR-5 ovarian
COLO 205 colon = test system: COLO 205 colon
A549 NSCLC = test system: A549 NSCLC
NCI/ADR-RES ovarian = test system: NCI/ADR-RES ovarian

CC(=O)n1c(-c2ccc(Cl)c(Cl)c2)cn(-c2ccc(Cl)cc2)c1=O
GI50 (SW-620 colon): 30.9 µM
TGI (SW-620 colon): > 100 µM
GI50 (OVCAR-4 ovarian): 20 µM
TGI (OVCAR-4 ovarian): 57.7 µM
GI50 (A498 renal): 20.9 µM
TGI (A498 renal): 47 µM
GI50 (OVCAR-8 ovarian): 23.1 µM
TGI (OVCAR-8 ovarian): 76.5 µM
GI50 (T-47D breast): 19.3 µM
TGI (T-47D breast): 49.5 µM
GI50 (SNB-19 CNS): 13.4 µM
TGI (SNB-19 CNS): 40.7 µM
GI50 (M14 melanoma): 27.6 µM
TGI (M14 melanoma): > 100 µM
GI50 (NCI-H460 lung): 30.8 µM
TGI (NCI-H460 lung): > 100 µM
GI50 (SK-MEL-2 melanoma): 22.4 µM
TGI (SK-MEL-2 melanoma): 69.2 µM
GI50 (SF-295 CNS): 11.9 µM
TGI (SF-295 CNS): 28.8 µM
GI50 (SF-539 CNS): 14.1 µM
TGI (SF-539 CNS): 31.9 µM
GI50 (HCT-15 colon): 63.7 µM
TGI (HCT-15 colon): > 100 µM
GI50 (MDA-MB-231 breast): 17.6 µM
TGI (MDA-MB-231 breast): 62.6 µM
GI50 (CAKI-1 renal): 20.8 µM
TGI (CAKI-1 renal): 43.9 µM
GI50 (OVCAR-3 ovarian): 51.2 µM
TGI (OVCAR-3 ovarian): > 100 µM
GI50 (NCI-H522 lung): 19.3 µM
TGI (NCI-H522 lung): 53.6 µM
GI50 (HCT-116 colon): 19.6 µM
TGI (HCT-116 colon): > 100 µM
GI50 (SK-MEL-5 melanoma): 32.2 µM
TGI (SK-MEL-5 melanoma): > 100 µM
GI50 (HOP-62 NSCLC): 20.4 µM
TGI (HOP-62 NSCLC): 43.8 µM
GI50 (TK-10 renal): 18.7 µM
TGI (TK-10 renal): 38 µM
GI50 (SK-MEL-28 melanoma): > 100 µM
TGI (SK-MEL-28 melanoma): > 100 µM
GI50 (MCF7 breast): 30.8 µM
TGI (MCF7 breast): > 100 µM
GI50 (SR leukemia): 16.1 µM
TGI (SR leukemia): 33 µM
GI50 (HS 578T breast): 15.5 µM
TGI (HS 578T breast): 36.5 µM
GI50 (BT-549 breast): 17 µM
TGI (BT-549 breast): 36.6 µM
GI50 (HL-60(TB) leukemia): 34.8 µM
TGI (HL-60(TB) leukemia): > 100 µM
GI50 (LOX IMVI melanoma): 83.6 µM
TGI (LOX IMVI melanoma): > 100 µM
GI50 (MOLT-4 leukemia): 23.3 µM
TGI (MOLT-4 leukemia): 90.2 µM
GI50 (EKVX NSCLC): 12.5 µM
TGI (EKVX NSCLC): 34.6 µM
GI50 (SF-268 CNS): 23.5 µM
TGI (SF-268 CNS): > 100 µM
GI50 (CCRF-CEM leukemia): 16.8 µM
TGI (CCRF-CEM leukemia): 38 µM
GI50 (786-0 renal): 13.4 µM
TGI (786-0 renal): 32.9 µM
GI50 (SNB-75 CNS): 13.6 µM
TGI (SNB-75 CNS): 31.4 µM
GI50 (U251 CNS): 16.3 µM
TGI (U251 CNS): 37.5 µM
GI50 (HCC-2998 colon): 91.5 µM
TGI (HCC-2998 colon): > 100 µM
GI50 (RPMI-8226 leukemia): 18.8 µM
TGI (RPMI-8226 leukemia): 67.7 µM
GI50 (PC-3 prostate): 26.6 µM
TGI (PC-3 prostate): > 100 µM
GI50 (UACC-62 melanoma): 19.8 µM
TGI (UACC-62 melanoma): 55.8 µM
GI50 (UO-31 renal): 24.7 µM
TGI (UO-31 renal): 51.4 µM
GI50 (HT29 colon): 57.7 µM
TGI (HT29 colon): > 100 µM
GI50 (RXF 393 renal): 11.4 µM
TGI (RXF 393 renal): 27 µM
GI50 (SN12C renal): 31.8 µM
TGI (SN12C renal): > 100 µM
GI50 (HOP-92 NSCLC): 13.9 µM
TGI (HOP-92 NSCLC): 30.2 µM
GI50 (UACC-257 melanoma): 22.4 µM
TGI (UACC-257 melanoma): 66.8 µM
GI50 (MDA-MB-435): 84.1 µM
TGI (MDA-MB-435): > 100 µM
GI50 (K-562 leukemia): 24.1 µM
TGI (K-562 leukemia): 80.5 µM
GI50 (ACHN renal): 27.8 µM
TGI (ACHN renal): > 100 µM
GI50 (MALME-3M melanoma): 32 µM
TGI (MALME-3M melanoma): > 100 µM
GI50 (KM12 colon): 67 µM
TGI (KM12 colon): > 100 µM
GI50 (DU-145 prostate): 17.4 µM
TGI (DU-145 prostate): 45.8 µM
GI50 (NCI-H226 lung): 24.3 µM
TGI (NCI-H226 lung): 74.5 µM
GI50 (SK-OV-3 ovarian): 19.2 µM
TGI (SK-OV-3 ovarian): 44.1 µM
GI50 (OVCAR-5 ovarian): 55 µM
TGI (OVCAR-5 ovarian): > 100 µM
GI50 (COLO 205 colon): 53 µM
TGI (COLO 205 colon): > 100 µM
GI50 (A549 NSCLC): 39.3 µM
TGI (A549 NSCLC): > 100 µM
GI50 (NCI/ADR-RES ovarian): 35.2 µM
TGI (NCI/ADR-RES ovarian): > 100 µM
